Test system: Apo E^−/− mice
Assay: Apo E−/− mice on western diet given RvD5n-3 DPA: blood leukocyte and platelet activation by flow cytometry
Type: in vivo
Settings: 100 ng/mouse i.v., alternate days, 2 weeks; vs vehicle
Method: Mice (male and female) were fed a western diet for 6 weeks from 4 weeks of age and kept of a 12 h light dark cycle. At 8 weeks of age, mice were given RvD5n-3 DPA (100 ng/mouse; i.v.) or vehicle on alternate days for a 2-week period. Mice were culled, aortic arches were collected and stained using oil-red O as in Khambata R S et al. Anti-inflammatory actions of inorganic nitrate stabilize the atherosclerotic plaque. Proc Natt Acad Sci USA. 2017; 114(4):E550-E559, the contents of which are incorporated herein by reference. Staining intensity was determined using image processing software and expressed as relative units per mm^2. The descending aorta was collected, placed in ice-cold methanol and lipid mediators identified and quantified as described above.
In separate experiments blood was collected from Apo E^−/− mice using heparin-lined syringes via cardiac puncture. Cells were incubated with Fc-blocking IgG and anti-mouse CD11b-PE-Texas Red, CD62P-Brilliant Violet650™, CD115-Brilliant Violet 711™, and CD41-Brilliant Violet 510™ (Biolegend). for 45 minutes on ice. Red blood cells were lysed and fixed using Whole Blood Lysing Reagent Kit. Staining was then evaluated using a flow cytometer and analysis was conducted using appropriate software.

## CC/C=C\C[C@H](O)/C=C/C=C\C/C=C\C=C\[C@@H](O)CCCCCC(=O)O [RvD5n-3 DPA, 7,17-trihydroxy-8E,10,13,15E,19Z-docosapentaenoic acid]
  circulating platelet-monocyte aggregates (CD41 and CD62P expression on CD115 positive cells): reduced
  monocyte activation, CD11b expression: decrease
  platelet-neutrophil aggregates and neutrophil activation: significant reduction
  reduction in neutrophil CD11b expression: > 60%
